Reference: patent publication US10100010B1, “4-methoxy pyrrole derivatives or salts thereof and pharmaceutical composition comprising the same” (Daewoong Pharmaceutical Co., Ltd., priority 2015, dated 2018)
Where a name gives a salt, the structure may show the parent alone. Read-outs that look alike come from different tables or passages of the source.

Tests used:
Format in all cases: cell-based
[1] = tested on: H. pylori; experiment: Antimicrobial activity against H. pylori, MIC by agar dilution method; settings: Helicobacter pylori
[2] = biological target: 5-HT2A (Homo sapiens, UniProt P28223); experiment: GPCR Calcium Flux assay (FLIPR tetra, Eurofins), 5-HT2A; settings: for inhibition at 10 µM: read-out: inhibition rate (%) 5-HT2A
Description: (§1) In order to confirm whether the compounds prepared in the above Examples act as an agonist or antagonist against GPCR Target, Calcium Flux assay was performed in an assay plate in which the compounds prepared in the Examples, vehicle controls, and reference compounds were added, using a Fluorometric imaging plate reader (FLIPR tetra) equipment.
(§2) Calcium Flux assay was evaluated by entrusting the GPCR profiler assay in Safety panel assays with Eurofins. By using the Fluo-8AM calcium dye, excitation was measured at a wavelength in the range of 470 to 495 nm and Emission was measured at a wavelength in the range of 515-575 nm. GPCR Assay Buffer for Calcium Flux assay was prepared by adding 20 mM of HEPES and 2.5 mM of Probenecid to Hanks Balanced Salt Solution (HBSS) to have pH 7.4. The Compounds of Examples for evaluation of the GPCR were diluted with DMSO at a concentration of 10 mM to make a stock and then prepared by diluting in the GPCR Assay Buffer at the concentration equivalent to three times the final concentration. First, for the evaluation of GPCRs, the inhibitory activity of the compounds of the Examples was evaluated at a single concentration of 10 uM, and then the respective selected targets were four fold-diluted from 10 uM to the low side to calculate 50% inhibitory concentration (IC50), prepared at the total 8 concentrations of 10, 2.5, 0.62, 0.15, 0.04, 0.01, 0.0024, 0.0006 uM, and Calcium Flux assay for GPCR was conducted. In order to evaluate the agonist and antagonist, % inhibition rate against GPCR activity before and after treatment of the compounds and the inhibitory activity of the compounds of the Examples were determined.
(§3) As a result, when the efficacy of […] and acetylcholine of the compounds prepared in the Examples was 100%, the inhibition rate (%) at a single concentration of 10 uM was evaluated and shown in Table 8.

[3] = biological target: T1, M1 (Homo sapiens, UniProt P11229); experiment: GPCR Calcium Flux assay (FLIPR tetra, Eurofins), M1; settings: for inhibition at 10 µM: single concentration of 10 uM, read-out: inhibition rate (%) M1
T1 sequence (P11229 1-460): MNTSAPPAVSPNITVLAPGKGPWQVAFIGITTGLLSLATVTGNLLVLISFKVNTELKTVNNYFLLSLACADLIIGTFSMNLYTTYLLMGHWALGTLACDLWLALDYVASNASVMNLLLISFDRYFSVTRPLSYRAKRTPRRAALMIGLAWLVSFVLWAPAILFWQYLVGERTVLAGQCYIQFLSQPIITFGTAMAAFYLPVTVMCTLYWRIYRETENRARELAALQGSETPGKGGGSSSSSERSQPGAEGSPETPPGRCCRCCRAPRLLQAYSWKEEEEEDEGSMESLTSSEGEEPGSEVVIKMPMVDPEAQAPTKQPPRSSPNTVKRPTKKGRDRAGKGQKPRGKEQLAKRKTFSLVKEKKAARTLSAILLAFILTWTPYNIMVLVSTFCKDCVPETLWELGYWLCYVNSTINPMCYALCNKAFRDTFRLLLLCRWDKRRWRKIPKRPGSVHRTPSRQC
Description: as §1, §2, §3

5-HT2A, sequence (P28223 whole entry): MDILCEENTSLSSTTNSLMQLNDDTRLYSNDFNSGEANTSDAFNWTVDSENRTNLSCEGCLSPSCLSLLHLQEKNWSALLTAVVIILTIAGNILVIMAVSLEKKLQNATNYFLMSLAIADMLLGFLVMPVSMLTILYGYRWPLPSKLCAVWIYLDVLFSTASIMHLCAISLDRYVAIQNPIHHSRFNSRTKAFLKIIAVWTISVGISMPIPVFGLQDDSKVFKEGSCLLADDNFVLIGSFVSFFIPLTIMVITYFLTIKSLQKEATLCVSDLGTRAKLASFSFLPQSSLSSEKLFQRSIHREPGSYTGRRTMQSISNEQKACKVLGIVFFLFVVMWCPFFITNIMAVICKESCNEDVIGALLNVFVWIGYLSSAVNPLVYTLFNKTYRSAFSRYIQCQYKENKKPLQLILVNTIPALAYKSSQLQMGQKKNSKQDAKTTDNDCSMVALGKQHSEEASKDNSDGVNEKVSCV

CNCc1cn(S(=O)(=O)c2cccc(F)c2)c(-c2ccc(F)cc2F)c1OC.Cl [Example 8, 1-(5-(2,4-difluorophenyl)-1-((3-fluorophenyl)sulfonyl)-4-methoxy-1H-pyrrol-3-yl)-N-methylmethanamine hydrochloride]
102%: inhibition at 10 µM ([2]; single concentration of 10 uM)
37.5 µg/mL: MIC ([1]; strain 133 (HPKTCC B0023)) | MIC ([1]; strain CH94 (HPKTCC B0582)) | MIC ([1]; strain CJH8 (HPKTCC B0608)) | MIC ([1]; strain SS1-P-4′ (HPKTCC B3392))
150 µg/mL: MIC ([1]; strain 118 (HPKTCC B0017)) | MIC ([1]; strain 126 (HPKTCC B0020)) | MIC ([1]; strain 156 (HPKTCC B0035)) | MIC ([1]; strain 159 (HPKTCC B0037)) | MIC ([1]; strain 183 (HPKTCC B0047)) | MIC ([1]; strain 26695 CHGKG (HPKTCC B3412))
0.11 µM: IC50 ([2]; 8 concentrations 10 to 0.0006 uM, read-out: 50% inhibitory concentration (IC50) 5-HT2A)
0.14 µM: IC50 ([3]; 8 concentrations 10 to 0.0006 uM, read-out: 50% inhibitory concentration (IC50) M1)
75 µg/mL: MIC ([1]; strain 45 (HPKTCC B0004)) | MIC ([1]; strain 51 (HPKTCC B0006)) | MIC ([1]; strain 52 (HPKTCC B0007)) | MIC ([1]; strain 92-33-1 (HPKTCC B0182)) | MIC ([1]; strain 92-82-1 (HPKTCC B0233)) | MIC ([1]; strain 92-157 (HPKTCC B0152)) | MIC ([1]; strain 127 (HPKTCC B0021)) | MIC ([1]; strain 134 (HPKTCC B0024)) | MIC ([1]; strain 138 (HPKTCC B0026)) | MIC ([1]; strain 164 (HPKTCC B0040)) | MIC ([1]; strain 193 (HPKTCC B0051)) | MIC ([1]; strain 198 (HPKTCC B0055)) | MIC ([1]; strain 205 (HPKTCC B0058)) | MIC ([1]; strain 210 (HPKTCC B0061)) | MIC ([1]; strain 221 (HPKTCC B0068)) | MIC ([1]; strain 228 (HPKTCC B0071)) | MIC ([1]; strain 235 (HPKTCC B0074)) | MIC ([1]; strain 236 (HPKTCC B0075)) | MIC ([1]; strain 302 (HPKTCC B0088)) | MIC ([1]; strain 26695 (HPKTCC B0100)) | MIC ([1]; strain CH24 (HPKTCC B0508)) | MIC ([1]; strain CH173 (HPKTCC B0494)) | MIC ([1]; strain CH175 (HPKTCC B0496)) | MIC ([1]; strain CH189 (HPKTCC B0498)) | MIC ([1]; strain CH192 (HPKTCC B0500)) | MIC ([1]; strain CH272 (HPKTCC B0516)) | MIC ([1]; strain CH369 (HPKTCC B0522)) | MIC ([1]; strain CH381 (HPKTCC B0524)) | MIC ([1]; strain CH498 (HPKTCC B0536)) | MIC ([1]; strain CH502 (HPKTCC B0537)) | MIC ([1]; strain CH523 (HPKTCC B0541)) | MIC ([1]; strain CH541 (HPKTCC B0548)) | MIC ([1]; strain CH588 (HPKTCC B0556)) | MIC ([1]; strain CH609 (HPKTCC B0558)) | MIC ([1]; strain CH612 (HPKTCC B0559)) | MIC ([1]; strain CH631 (HPKTCC B0560)) | MIC ([1]; strain CH635 (HPKTCC B0562)) | MIC ([1]; strain CH674 (HPKTCC B0564)) | MIC ([1]; strain CH1056 (HPKTCC B0487)) | MIC ([1]; strain CJH7 (HPKTCC B0606)) | MIC ([1]; strain CJH9 (HPKTCC B0610)) | MIC ([1]; strain CJH10 (HPKTCC B0587)) | MIC ([1]; strain CJH13 (HPKTCC B0589)) | MIC ([1]; strain CJH31 (HPKTCC B0594)) | MIC ([1]; strain CJH33 (HPKTCC B0595)) | MIC ([1]; strain CJH43 (HPKTCC B0596)) | MIC ([1]; strain CJH50 (HPKTCC B0599)) | MIC ([1]; strain G88001 (HPKTCC B0722)) | MIC ([1]; strain G88007 (HPKTCC B0725)) | MIC ([1]; strain J99 (HPKTCC B0748))
101%: inhibition at 10 µM [3]

CNCc1cn(S(=O)(=O)c2cccc(C(F)(F)F)c2)c(-c2ccccc2F)c1OC [Example 2, hydrochloride]
39.5%: inhibition at 10 µM [2]
92.7%: inhibition at 10 µM [3]
